Measurements published in ChEMBL document CHEMBL5608235, “Tricyclic Benzo[1,3]oxazinyloxazolidinones as Potent Antibacterial Agents against Drug-Resistant Pathogens” (J Med Chem, 2024).
Values after ≈ are worked out from the molar mass of the structure shown.

Experiments:
[1] = test system: Mycobacterium tuberculosis; experiment: Antibacterial activity against isoniazid/streptomycin/rifampicin/ethambutol/para-axminosalicylate/prothionamide/capreomycin resistant Mycobacterium tuberculosis 14862 assessed as inhibition of bacterial growth incubated for 7 days by alamar blue assay; assay type: functional; conditions: Mycobacterium tuberculosis, 14862, 168 h; time 7 day
[2] = test system: Mycobacterium tuberculosis; experiment: Antibacterial activity against isoniazid/streptomycin/rifampicin/ethambutol/rifabutin/para-axminosalicylate/ofloxacin resistant Mycobacterium tuberculosis 13946 assessed as inhibition of bacterial growth incubated for 7 days by alamar blue assay; assay type: functional; conditions: Mycobacterium tuberculosis, 13946, 168 h; time 7 day

| SMILES | MIC [1] [µg/mL] | MIC [2] [µg/mL] |
| --- | --- | --- |
| CC(=O)NC[C@@H]1OC(=O)N2Cc3c(cc(F)c(-c4ccc(-c5nnn(C)n5)nc4)c3F)O[C@@H]12 | 0.33 (≈ 0.721 µM) | 0.28 (≈ 0.612 µM) |
| CC(=O)NC[C@@H]1OC(=O)N2Cc3cc(-c4ccc(C#N)cc4)c(F)cc3O[C@@H]12 | 0.41 (≈ 1.08 µM) | 0.11 (≈ 0.288 µM) |
| COC(=O)NC[C@@H]1OC(=O)N2Cc3cc(-c4ccc(C#N)cc4)c(F)cc3O[C@@H]12 | 0.24 (≈ 0.604 µM) | 0.56 (≈ 1.41 µM) |
| CC(=O)NC[C@@H]1OC(=O)N2Cc3c(cc(F)c(-c4ccc(C#N)nc4)c3F)O[C@@H]12 | 0.47 (≈ 1.17 µM) | 0.48 (≈ 1.2 µM) |
| COC(=O)NC[C@@H]1OC(=O)N2Cc3cc(-c4ccc(-c5nnn(C)n5)nc4)c(F)cc3O[C@@H]12 | 0.22 (≈ 0.483 µM) | 0.39 (≈ 0.856 µM) |
| COC(=O)NC[C@@H]1OC(=O)N2Cc3cc(-c4ccc(C#N)nc4)c(F)cc3O[C@@H]12 | 0.6 (≈ 1.51 µM) | 0.87 (≈ 2.18 µM) |
| NNC(=O)c1ccncc1 [ISONIAZID] | > 10 | 4.78 (≈ 34.9 µM) |
| CO[C@H]1/C=C/O[C@@]2(C)Oc3c(C)c(O)c4c(O)c(c(/C=N/N5CCN(C)CC5)c(O)c4c3C2=O)NC(=O)/C(C)=C\C=C\[C@H](C)[C@H](O)[C@@H](C)[C@@H](O)[C@@H](C)[C@H](OC(C)=O)[C@@H]1C [RIFAMPIN] | > 10 | > 10 |
